The values that follow come from patent US7635572B2, “Methods for conducting assays for enzyme activity on protein microarrays” (Life Technologies Corporation, priority 2004, dated 2009).

Holding throughout (assay): Further analysis of a plurality of inhibitors and a plurality of kinases on microarray (Example IX, Table 5);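 on Inhibition level, DYRK2: level 0 none or unclear Level 1 marginal Level 2 substantial inhibition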;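 on Inhibition level, Homo sapiens in: level 0 none or unclear Level 1 marginal Level 2 substantial inhibition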;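 on Inhibition level, Homo sapiens, o: level 0 none or unclear Level 1 marginal Level 2 substantial inhibition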;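 on Inhibition level, LOC57118: level 0 none or unclear then 1 little or marginal then 2 substantial inhibition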;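 on Inhibition level, MAP2K4: level 0 none or unclear Level 1 marginal Level 2 substantial inhibition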;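 on Inhibition level, MAP3K7: level 0 none or unclear then 1 little or marginal then 2 substantial inhibition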;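 on Inhibition level, TBK1: level 0 no or unclear inhibition to Level 2 substantial inhibition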
What all share (assay type): biochemical

For assay [1], the target named is T1, plurality of kinases (Table 5) (Homo sapiens, UniProt O43318).
T1 sequence (O43318 1-606): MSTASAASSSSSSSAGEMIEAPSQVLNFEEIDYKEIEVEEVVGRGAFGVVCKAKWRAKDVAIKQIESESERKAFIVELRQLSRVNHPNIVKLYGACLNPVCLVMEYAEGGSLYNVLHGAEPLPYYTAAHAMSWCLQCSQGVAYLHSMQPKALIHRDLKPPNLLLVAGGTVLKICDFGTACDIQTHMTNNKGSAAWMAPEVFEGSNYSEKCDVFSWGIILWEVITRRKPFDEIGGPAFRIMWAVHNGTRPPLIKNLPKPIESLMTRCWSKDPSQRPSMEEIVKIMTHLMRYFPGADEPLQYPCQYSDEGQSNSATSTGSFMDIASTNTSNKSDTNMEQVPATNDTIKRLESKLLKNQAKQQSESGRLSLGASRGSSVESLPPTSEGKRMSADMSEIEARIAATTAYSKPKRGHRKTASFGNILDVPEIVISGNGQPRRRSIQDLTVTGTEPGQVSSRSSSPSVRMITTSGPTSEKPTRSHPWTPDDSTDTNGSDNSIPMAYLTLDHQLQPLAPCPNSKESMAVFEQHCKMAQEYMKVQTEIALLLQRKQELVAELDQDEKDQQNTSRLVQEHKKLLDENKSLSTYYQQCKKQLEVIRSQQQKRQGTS
The settings on record: plate G9.

Assay [2] has as its target T2, plurality of kinases (Table 5) (Homo sapiens, UniProt P45985).
T2 sequence (P45985 1-399): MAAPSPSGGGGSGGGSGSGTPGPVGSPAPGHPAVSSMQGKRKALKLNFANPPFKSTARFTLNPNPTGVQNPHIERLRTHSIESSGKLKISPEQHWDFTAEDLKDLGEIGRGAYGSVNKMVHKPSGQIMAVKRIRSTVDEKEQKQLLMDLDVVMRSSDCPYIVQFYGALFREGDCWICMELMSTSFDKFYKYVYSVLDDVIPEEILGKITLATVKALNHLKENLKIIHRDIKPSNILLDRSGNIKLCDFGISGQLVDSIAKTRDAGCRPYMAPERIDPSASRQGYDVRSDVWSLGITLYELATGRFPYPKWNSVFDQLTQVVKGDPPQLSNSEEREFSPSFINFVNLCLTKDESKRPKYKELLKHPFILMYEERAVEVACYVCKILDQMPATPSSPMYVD
The following applies: plate E6.

The target in assay [3] is plurality of kinases (Table 5) (Homo sapiens, UniProt Q05655). The following applies: plate B2.
Sequence of plurality of kinases (Table 5) (Homo sapiens, UniProt Q05655) (Q05655 whole entry): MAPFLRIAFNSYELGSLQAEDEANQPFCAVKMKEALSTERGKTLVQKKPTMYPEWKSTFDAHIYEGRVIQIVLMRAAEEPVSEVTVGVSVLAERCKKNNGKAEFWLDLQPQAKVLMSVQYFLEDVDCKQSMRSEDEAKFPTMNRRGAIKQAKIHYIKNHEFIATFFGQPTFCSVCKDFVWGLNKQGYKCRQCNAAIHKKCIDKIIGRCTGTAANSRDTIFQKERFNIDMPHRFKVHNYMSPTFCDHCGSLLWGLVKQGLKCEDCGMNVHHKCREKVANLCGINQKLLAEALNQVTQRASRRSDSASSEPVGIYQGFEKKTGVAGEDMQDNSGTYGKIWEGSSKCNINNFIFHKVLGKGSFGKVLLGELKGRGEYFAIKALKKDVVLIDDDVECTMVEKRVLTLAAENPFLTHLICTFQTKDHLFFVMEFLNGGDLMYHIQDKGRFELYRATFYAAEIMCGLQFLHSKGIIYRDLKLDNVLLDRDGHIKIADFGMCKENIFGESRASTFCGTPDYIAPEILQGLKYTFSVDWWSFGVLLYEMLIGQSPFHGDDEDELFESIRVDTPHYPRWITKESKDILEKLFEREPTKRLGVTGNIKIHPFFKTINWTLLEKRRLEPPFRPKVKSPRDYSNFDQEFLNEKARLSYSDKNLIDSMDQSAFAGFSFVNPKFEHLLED
Assay [4] concerns the target plurality of kinases (Table 5) (Homo sapiens, UniProt Q8IU85). The settings on record: plate D2; inhibitor 100 uM.
For assay [5], the target named is T3, plurality of kinases (Table 5) (Homo sapiens, UniProt Q92630).
T3 sequence (Q92630 1-601): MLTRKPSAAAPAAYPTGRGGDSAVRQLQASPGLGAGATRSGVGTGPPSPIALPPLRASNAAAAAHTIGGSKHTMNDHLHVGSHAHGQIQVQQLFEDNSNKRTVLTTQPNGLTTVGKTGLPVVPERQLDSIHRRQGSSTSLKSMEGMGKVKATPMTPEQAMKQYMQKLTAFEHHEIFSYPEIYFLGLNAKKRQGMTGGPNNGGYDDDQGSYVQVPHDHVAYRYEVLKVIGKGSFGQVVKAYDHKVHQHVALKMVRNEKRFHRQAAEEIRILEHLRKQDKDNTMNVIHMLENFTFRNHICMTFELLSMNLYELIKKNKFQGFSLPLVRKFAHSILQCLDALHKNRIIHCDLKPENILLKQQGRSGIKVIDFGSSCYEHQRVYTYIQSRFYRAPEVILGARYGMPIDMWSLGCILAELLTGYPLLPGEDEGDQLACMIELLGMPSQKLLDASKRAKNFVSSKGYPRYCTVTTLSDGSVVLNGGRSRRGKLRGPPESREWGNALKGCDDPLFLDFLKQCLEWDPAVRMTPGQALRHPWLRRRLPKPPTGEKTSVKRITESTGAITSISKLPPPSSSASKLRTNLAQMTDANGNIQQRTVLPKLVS
The following applies: plate D11.

For assay [6], the target named is T4, plurality of kinases (Table 5) (Homo sapiens, UniProt Q9UHD2).
T4 sequence (Q9UHD2 1-729): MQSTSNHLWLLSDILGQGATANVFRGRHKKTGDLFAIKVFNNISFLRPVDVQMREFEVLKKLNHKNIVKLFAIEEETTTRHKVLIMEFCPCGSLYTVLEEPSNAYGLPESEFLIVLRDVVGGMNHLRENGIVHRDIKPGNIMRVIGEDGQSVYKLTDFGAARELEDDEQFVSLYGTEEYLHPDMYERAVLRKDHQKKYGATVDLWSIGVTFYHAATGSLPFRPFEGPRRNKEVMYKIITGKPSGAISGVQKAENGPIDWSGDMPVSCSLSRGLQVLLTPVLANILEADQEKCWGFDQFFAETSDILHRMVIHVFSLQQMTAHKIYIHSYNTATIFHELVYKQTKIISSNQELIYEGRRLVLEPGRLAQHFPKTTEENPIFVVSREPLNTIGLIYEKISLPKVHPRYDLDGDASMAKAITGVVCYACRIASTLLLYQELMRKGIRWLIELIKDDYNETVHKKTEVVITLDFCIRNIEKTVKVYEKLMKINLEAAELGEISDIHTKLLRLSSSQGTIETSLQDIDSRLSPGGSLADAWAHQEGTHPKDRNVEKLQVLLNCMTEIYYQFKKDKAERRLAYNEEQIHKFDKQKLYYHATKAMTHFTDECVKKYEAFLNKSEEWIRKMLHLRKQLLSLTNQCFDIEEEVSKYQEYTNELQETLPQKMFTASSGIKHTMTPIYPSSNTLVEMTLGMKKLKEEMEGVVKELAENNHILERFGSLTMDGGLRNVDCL
The settings on record: plate G1; inhibitor 100 uM.

In assay [7] the target is plurality of kinases (Table 5) (Homo sapiens, UniProt Q9Y6E0). The settings on record: plate F11; inhibitor 100 uM.
Sequence of plurality of kinases (Table 5) (Homo sapiens, UniProt Q9Y6E0) (Q9Y6E0 whole entry): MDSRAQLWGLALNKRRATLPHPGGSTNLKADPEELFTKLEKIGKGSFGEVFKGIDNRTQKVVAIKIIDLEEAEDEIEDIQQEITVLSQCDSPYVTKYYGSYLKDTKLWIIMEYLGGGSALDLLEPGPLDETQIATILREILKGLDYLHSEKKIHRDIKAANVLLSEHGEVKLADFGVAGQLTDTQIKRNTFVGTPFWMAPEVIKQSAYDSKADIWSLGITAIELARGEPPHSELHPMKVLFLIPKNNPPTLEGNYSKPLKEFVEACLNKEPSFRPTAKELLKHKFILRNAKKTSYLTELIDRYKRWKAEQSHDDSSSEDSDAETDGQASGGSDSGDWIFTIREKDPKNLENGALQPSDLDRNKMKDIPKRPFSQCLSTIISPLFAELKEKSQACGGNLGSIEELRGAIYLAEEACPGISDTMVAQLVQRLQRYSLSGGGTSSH
Assay [8] deals with plurality of kinases (Table 5). The settings on record: for Inhibition level, Homo sapiens c: plate F4; for Inhibition level, Homo sapiens, o: plate F5; for Inhibition level, Homo sapiens, B: plate F7; for Inhibition level, Homo sapiens in: plate F9; for Inhibition level, Homo sapiens p: plate F10.

Sequence of plurality of kinases (Table 5) (Homo sapiens, UniProt Q8IU85) (Q8IU85 whole entry): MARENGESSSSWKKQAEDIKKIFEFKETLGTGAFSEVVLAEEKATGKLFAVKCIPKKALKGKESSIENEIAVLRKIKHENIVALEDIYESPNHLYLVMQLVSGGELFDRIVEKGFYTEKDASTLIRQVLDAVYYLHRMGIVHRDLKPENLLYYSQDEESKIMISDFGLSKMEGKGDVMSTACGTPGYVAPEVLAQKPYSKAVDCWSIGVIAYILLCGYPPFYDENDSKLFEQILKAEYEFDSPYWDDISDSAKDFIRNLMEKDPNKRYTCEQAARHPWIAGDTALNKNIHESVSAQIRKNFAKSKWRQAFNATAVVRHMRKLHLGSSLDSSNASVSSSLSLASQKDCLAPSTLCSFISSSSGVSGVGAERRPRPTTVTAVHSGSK

In the case of `CC(C)(C)n1nc(-c2ccc(Cl)cc2)c2c(N)ncnc21` [PP2], the “Inhibition level, MAP3K7” value in assay [1] (inhibitor 100 uM) is 2. Also, in assay [2] (inhibitor 100 uM), the “Inhibition level, MAP2K4” value was 2. In addition, the “Inhibition level, PRKCD” value in assay [3] (inhibitor 100 uM) was 0. Further, the “Inhibition level, LOC57118” value in assay [4] is recorded as 0. For the same compound, the “Inhibition level, DYRK2” value in assay [5] (inhibitor 100 uM) came to 2. Moreover, in assay [6], the “Inhibition level, TBK1” value worked out at 1. Besides, in assay [7], the “Inhibition level, STK24” value stood at 2. For the same compound, the “Inhibition level, Homo sapiens, S” value in assay [8] (plate E9, inhibitor 100 uM) is 2. For the same compound, in assay [8] (plate E11, inhibitor 100 uM), the “Inhibition level, Homo sapiens, s” value stood at 2. Further, the “Inhibition level, Homo sapiens, s” value in assay [8] (plate F3, inhibitor 100 uM) is listed as 2. In assay [8] (inhibitor 100 uM), the “Inhibition level, Homo sapiens c” value amounted to 2; the “Inhibition level, Homo sapiens, o” value was 2; the “Inhibition level, Homo sapiens, B” value stood at 2; the “Inhibition level, Homo sapiens in” value is on record as 2. For the same compound, the “Inhibition level, Homo sapiens p” value in assay [8] (inhibitor 100 uM) is recorded as 2. Further, in assay [8] (plate F6, inhibitor 100 uM), the “Inhibition level, Homo sapiens, S” value came to 2. Besides, in assay [8] (plate F8, inhibitor 100 uM), the “Inhibition level, Homo sapiens, s” value was 0.

Regarding `Cn1cc(C2=C(c3cn(CCCSC(=N)N)c4ccccc34)C(=O)NC2=O)c2ccccc21` [Ro-31-8220], the “Inhibition level, MAP3K7” value in assay [1] (Ro-31-8220 90 uM) and in assay [1] (inhibitor 100 uM) was 2 in each case. The “Inhibition level, MAP2K4” value in assay [2] (Ro-31-8220 90 uM) is listed as 0; in assay [2] (inhibitor 100 uM) it was 1. Moreover, the “Inhibition level, PRKCD” value in assay [3] (Ro-31-8220, conc. not given) was found to be 2; in assay [3] (inhibitor 100 uM), 0. Besides, in assay [4], the “Inhibition level, LOC57118” value amounted to 0. Further, the “Inhibition level, DYRK2” value came out at 0 in assay [5] (Ro-31-8220, conc. not given) and 2 in assay [5] (inhibitor 100 uM). Besides, the “Inhibition level, TBK1” value in assay [6] is on record as 2. In assay [7], the “Inhibition level, STK24” value is given as 2. Also, the “Inhibition level, Homo sapiens, S” value in assay [8] (plate E9, inhibitor 100 uM) is recorded as 0; in assay [8] (plate F6, Ro-31-8220, conc. not given), 0; in assay [8] (plate F6, inhibitor 100 uM), 2. For the same compound, the “Inhibition level, Homo sapiens, s” value in assay [8] (plate E11, inhibitor 100 uM) is given as 2; in assay [8] (plate F3, Ro-31-8220, conc. not given) it was 2; in assay [8] (plate F3, inhibitor 100 uM) it was 2; in assay [8] (plate F8, Ro-31-8220, conc. not given), 2; in assay [8] (plate F8, inhibitor 100 uM) it was 0. Besides, in assay [8] (inhibitor 100 uM), the “Inhibition level, Homo sapiens c” value was 2. The “Inhibition level, Homo sapiens, o” value in assay [8] (Ro-31-8220, conc. not given) came out at 0; in assay [8] (inhibitor 100 uM) it was 2. The “Inhibition level, Homo sapiens, B” value in assay [8] (Ro-31-8220, conc. not given) was found to be 2; in assay [8] (inhibitor 100 uM) it was 0. Further, the “Inhibition level, Homo sapiens in” value in assay [8] (Ro-31-8220, conc. not given) worked out at 2; in assay [8] (inhibitor 100 uM) it was 0. Besides, the “Inhibition level, Homo sapiens p” value worked out at 2 in assay [8] (Ro-31-8220, conc. not given) and 2 in assay [8] (inhibitor 100 uM).

For `CC(=O)c1c(O)c(C)c(O)c(Cc2c(O)c3c(c(C(=O)/C=C/c4ccccc4)c2O)OC(C)(C)C=C3)c1O` [Rottlerin (Mallotoxin)], the “Inhibition level, MAP3K7” value in assay [1] (inhibitor 100 uM) turned out to be 2. Besides, the “Inhibition level, MAP2K4” value in assay [2] (inhibitor 100 uM) came out at 1. For the same compound, the “Inhibition level, PRKCD” value in assay [3] (inhibitor 100 uM) was 0. Besides, the “Inhibition level, LOC57118” value in assay [4] amounted to 0. In addition, the “Inhibition level, DYRK2” value in assay [5] (inhibitor 100 uM) was determined as 2. For the same compound, in assay [6], the “Inhibition level, TBK1” value came to 1. Besides, the “Inhibition level, STK24” value in assay [7] was found to be 1. Further, the “Inhibition level, Homo sapiens, S” value in assay [8] (plate E9, inhibitor 100 uM) is recorded as 2. Besides, in assay [8] (plate E11, inhibitor 100 uM), the “Inhibition level, Homo sapiens, s” value stood at 2. For the same compound, in assay [8] (plate F3, inhibitor 100 uM), the “Inhibition level, Homo sapiens, s” value stood at 0. For the same compound, in assay [8] (inhibitor 100 uM), the “Inhibition level, Homo sapiens c” value came out at 0; the “Inhibition level, Homo sapiens, o” value is recorded as 0; the “Inhibition level, Homo sapiens, B” value is reported as 2; the “Inhibition level, Homo sapiens in” value worked out at 0. In assay [8] (inhibitor 100 uM), the “Inhibition level, Homo sapiens p” value is recorded as 2. The “Inhibition level, Homo sapiens, S” value in assay [8] (plate F6, inhibitor 100 uM) was 0. The “Inhibition level, Homo sapiens, s” value in assay [8] (plate F8, inhibitor 100 uM) came out at 0.
